In US10189842B2 (Agency for Science, Technology and Research, priority 2013, dated 2019):
Like-named read-outs stand apart in the source and are kept apart here.

Experiments:
[1] = system: MMTV-Wnt1 tumor; assay: MMTV-Wnt1 mouse model; assay type: in vivo; conditions: for % T/C / % TGI / NTRD / T/C / TRD: Day 14; for tumor growth: treated mice, FIG. 2 and FIG. 3
Description: 8-10 weeks old Female BALBc mice were anesthetised with 150 mg/kg Ketamine+75 mg/kg Xylazine. Under aseptic conditions, skin near the 4th mammary fat pad was incised. Mammary fat pad was tweaked with forceps and tumor fragment ˜2 mm^3 was implanted. The incision was closed using a tissue adhesive. Animals were randomised into groups of eight and treated daily with the test compounds for 14 days. Tumors were measured in two dimensions using calipers, and volume was calculated using the formula: Tumor Volume (mm^3)=[…]. Maximum tumor volume limit was 2000 mm^3.

[2] = system: AsPC-1 cells; assay: Soft agar assay, AsPC-1; assay type: cell-based; conditions: for IC50: Homo sapiens, ASPC1
Description: (§1) AsPC-1 cells were maintained in RPMI164 supplemented with 10% FBS, 2 mM L-glutamine and P/S (100 units/ml penicillin and 100 μg/ml streptomycin). HPAF-II cells were maintained in MEM (Eagles′) supplemented with 10% FBS, 2 mM L-glutamine and P/S (100 units/ml penicillin and 100 μg/ml streptomycin). CFPAC-1 cells were maintained in Iscove MEM supplemented with 10% FBS, 2 mM L-glutamine and P/S (100 units/ml penicillin and 100 μg/ml streptomycin).
(§2) 600 μl of 0.6% agar was added to 24-well plate to form the base layer. Then a middle layer of 0.36% agar (containing 5000 cells and serially diluted compound) was added on to the base layer. Finally 500 μl of fresh growth medium was added to the top of the middle layer. The plates were incubated at 37° C. with 5% carbon dioxide in a humidified incubator for 2 weeks. Formation of colonies was observed using a light microscope. When the colony size was larger than 500 μm, 70 μl MTT (5 mg/ml) was added to each well and the plates were incubated at 37° C. for at least 2 hours. Colonies were counted with GelCount® instrument. The colony counts were plotted against compound concentrations using the GraphPad Prism software. The software was also used to perform non-linear curve fitting and calculation of compound concentration that inhibited 50% colony formation.

[3] = system: HPAF-II cells; assay: Soft agar assay, HPAF-II; assay type: cell-based; conditions: for IC50: Homo sapiens
Description: as §1, §2

[4] = system: HEK293-STF3A cells; assay: STF3A assay (luciferase reporter); assay type: cell-based, Human; conditions: Homo sapiens, 24 h, 1 day of treatment
Procedure, shortened: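 HEK293 cells carrying the STF reporter and expressing Wnt3A, seeded 2×10^4 per well overnight, then treated 1 day with compound at final 50 μM to 1.5 nM. Luciferase activity read by luminescence after Steady-Glo reagent, 10 min at room temperature.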

[5] = system: CFPAC-1 cells; assay: Soft agar assay, CFPAC-1; assay type: cell-based; conditions: for IC50: Homo sapiens
Description: as §1, §2

[6] = system: mammalian PORCN; assay: PORCN-null HT1080 cells transfected with mammalian PORCN, WNT3A, STF reporter; assay type: cell-based; conditions: luciferase, FIG. 1
Description: PORCN-null HT1080 cells were transfected with mammalian or Xenopus PORCN expression plasmids, along with WNT3A, STF reporter and mCherry as transfection control. 6 hours after transfection, cells were treated with the compounds or DMSO as indicated, and the following day assayed for luciferase. Xenopus PORCN was resistant to the inhibitory effects of compounds.

[7] = system: V5-tagged Wnt3a; assay: Wnt3A palmitoylation assay; assay type: cell-based; conditions: 100 nM compound, HeLa cells, FIG. 4
Text: Wnt3A Palmitoylation Assay:
The assay used to determine the inhibition of the palmitoylation of Wnts by compound was described by Yap et al, (Yap MC, Kostiuk MA, Martin DD, Perinpanayagam MA, Hak PG, Siddam A, Majjigapu JR, Rajaiah G, Keller BO, Prescher JA, Wu P, Bertozzi CR, Falck JR, Berthiaume LG. 2010. Rapid and selective detection of fatty acylated proteins using omega-alkynyl-fatty acids and click chemistry. J Lipid Res. 51(6):1566-1580) with some modification. 3×10^6 HeLa cells were seeded in 10 cm culture dish and incubated at 37° C. overnight. […] After six hours, the cells were washed with PBS and treated with 100 μM alkyne palmitate in medium with 5% BSA. 100 nM compound or DMSO was added and the cells were incubated overnight at 37° C. The cells were lyzed and 600 μg cell lysate was collected and incubated with anti-V5 antibody (Invitrogen) followed by the pull down of V5-Wnt3a with the addition of Protein A/G agarose beads (Thermo scientific). The pulled down lysates containing V5-Wnt3a was click-reacted with biotin-azide (Invitrogen). The biotin-labelled protein lysate was then separated on SDS-PAGE and transferred to a nitrocellulose membrane. The membrane was incubated with primary anti-V5 antibody, followed by secondary anti-mouse Dylight 680 (Thermo scientific) to detect V5-Wnt3a. […]

## Cc1cc2n(n1)CCCN2C(=O)CCC(=O)Nc1ccc(-c2cccnc2)nn1 [Compound 51, 4-(2-methyl-6,7-dihydropyrazolo[1,5-a]pyrimidin-4(5H)-yl)-4-oxo-N-(6-(pyridin-3-yl)pyridazin-3-yl)butanamide]
[1]; 1 mg/Kg daily
  % T/C: 37.5%
  % TGI: 68%
  NTRD: 1/8
  T/C: 0.375
  TRD: 0/8
[1]; 3 mg/Kg daily
  % T/C: 38.3%
  % TGI: 67%
  NTRD: 0/8
  T/C: 0.383
  TRD: 0/8
[1]; 10 mg/Kg daily
  % T/C: 16.0%
  % TGI: 91%
  NTRD: 0/8
  T/C: 0.160
  TRD: 0/8
[1]
  tumor growth: decreased tumor growth in all the treated mice
[2]; AsPC-1
  Maximum inhibition: 76%
[2]; AsPC-1, Test 1, read-out: Test 1 IC50 (colony growth inhibitory concentration)
  IC50: 0.024 µM
[2]; AsPC-1, Test 2, read-out: Test 2 IC50 (colony growth inhibitory concentration)
  IC50: 0.01 µM
[2]; AsPC-1, mean of two independent experiments, read-out: Mean IC50 (colony growth inhibitory concentration)
  IC50: 0.017 µM
[3]
  Maximum inhibition: 97%
[3]; Test 1, read-out: Test 1 IC50 (colony growth inhibitory concentration)
  IC50: 0.008 µM
[3]; Test 2, read-out: Test 2 IC50 (colony growth inhibitory concentration)
  IC50: 0.01 µM
[3]; mean of two independent experiments, read-out: Mean IC50 (colony growth inhibitory concentration)
  IC50: 0.009 µM
[4]
  IC50: < 0.1 µM
[5]; CFPAC-1
  Maximum inhibition: 79%
[5]; CFPAC-1, Test 1, read-out: Test 1 IC50 (colony growth inhibitory concentration)
  IC50: 0.058 µM
[5]; CFPAC-1, Test 2, read-out: Test 2 IC50 (colony growth inhibitory concentration)
  IC50: 0.039 µM
[5]; CFPAC-1, mean of two independent experiments, read-out: Mean IC50 (colony growth inhibitory concentration)
  IC50: 0.049 µM
[6]
  inhibition of the activity of mammalian porcupine: inhibit the activity of mammalian porcupine
[7]
  Palmitoylation of Wnt3a: inhibited

## Cc1cncc(-c2ccc(NC(=O)CCC(=O)N3CCCn4nc(C)cc43)cn2)c1 [Compound 110, N-(5′-methyl-2,3′-bipyridin-5-yl)-4-(2-methyl-6,7-dihydropyrazolo[1,5-a]pyrimidin-4(5H)-yl)-4-oxobutanamide]
[1]
  tumor growth: decreased tumor growth in all the treated mice
[4]
  IC50: < 0.1 µM
[6]
  inhibition of the activity of mammalian porcupine: inhibit the activity of mammalian porcupine

## Cc1cc2n(n1)CCCN2C(=O)CCC(=O)Nc1cc(-c2cncc(Cl)c2)no1 [Compound 18, N-[3-(5-chloropyridin-3-yl)-1,2-oxazol-5-yl]-4-{2-methyl-5H,6H,7H-pyrazolo[1,5-a]pyrimidin-4-yl}-4-oxobutanamide]
[4]
  IC50: < 5 µM

## Cc1cc2n(n1)CCCN2C(=O)CCC(=O)Nc1ccc(-c2cncnc2)nc1 [Compound 154, 4-(2-methyl-6,7-dihydropyrazolo[1,5-a]pyrimidin-4(5H)-yl)-4-oxo-N-(6-(pyrimidin-5-yl)pyridin-3-yl)butanamide]
[4]
  IC50: < 1 µM

## Cc1cc2n(n1)CCCN2C(=O)CCC(=O)Nc1ccc(-c2nccs2)cn1 [Compound 26, 4-(2-methyl-6,7-dihydropyrazolo[1,5-a]pyrimidin-4(5H)-yl)-4-oxo-N-(5-(thiazol-2-yl)pyridin-2-yl)butanamide]
[4]
  IC50: < 0.1 µM

## Cc1cc2n(n1)CCCN2C(=O)CCC(=O)Nc1cc(-c2ccncc2)no1 [Compound 20, 4-{2-methyl-5H,6H,7H-pyrazolo[1,5-a]pyrimidin-4-yl}-4-oxo-N-[3-(pyridin-4-yl)-1,2-oxazol-5-yl]butanamide]
[4]
  IC50: > 10 µM

## Cc1cc2n(n1)CCCN2C(=O)CCC(=O)Nc1ccc(-c2cncnc2)cn1 [Compound 153, 4-(2-methyl-6,7-dihydropyrazolo[1,5-a]pyrimidin-4(5H)-yl)-4-oxo-N-(5-(pyrimidin-5-yl)pyridin-2-yl)butanamide]
[4]
  IC50: < 0.1 µM

## CCNC(=O)N1CCN(c2ccc(NC(=O)CCC(=O)N3CCCn4nc(C)cc43)nc2)CC1 [Compound 79, N-ethyl-4-(6-(4-(2-methyl-6,7-dihydropyrazolo[1,5-a]pyrimidin-4(5H)-yl)-4-oxobutanamido)pyridin-3-yl)piperazine-1-carboxamide]
[4]
  IC50: < 5 µM

## Cc1cc2n(n1)CCCN2C(=O)CCC(=O)Nc1cc(-c2cccc(Cl)c2)no1 [Compound 3, N-(3-(3-chlorophenyl)isoxazol-5-yl)-4-(2-methyl-6,7-dihydropyrazolo[1,5-a]pyrimidin-4(5H)-yl)-4-oxobutanamide]
[4]
  IC50: < 0.1 µM

## Cc1cc2n(n1)CCCN2C(=O)CCC(=O)Nc1ccc(-n2ccnc2)cc1 [Compound 27, N-(4-(1H-imidazol-1-yl)phenyl)-4-(2-methyl-6,7-dihydropyrazolo[1,5-a]pyrimidin-4(5H)-yl)-4-oxobutanamide]
[4]
  IC50: < 1 µM

## Cc1cc2n(n1)CCCN2C(=O)CCC(=O)Nc1ccc(-c2cccnn2)cc1 [Compound 37, 4-{2-methyl-5H,6H,7H-pyrazolo[1,5-a]pyrimidin-4-yl}-4-oxo-N-[4-(pyridazin-3-yl)phenyl]butanamide]
[4]
  IC50: < 1 µM

## Cc1cc2n(n1)CCCN2C(=O)CCC(=O)Nc1ccc(-c2ncccn2)cc1 [Compound 40, 4-{2-methyl-5H,6H,7H-pyrazolo[1,5-a]pyrimidin-4-yl}-4-oxo-N-[4-(pyrimidin-2-yl)phenyl]butanamide]
[4]
  IC50: < 1 µM

## Cc1cc2n(n1)CCCN2C(=O)CCC(=O)Nc1ccc(-c2cncc(C(F)(F)F)c2)nn1 [Compound 105, 4-(2-methyl-6,7-dihydropyrazolo[1,5-a]pyrimidin-4(5H)-yl)-4-oxo-N-(6-(5-(trifluoromethyl)pyridin-3-yl)pyridazin-3-yl)butanamide]
[4]
  IC50: < 0.1 µM
